Patent US11993640B2, “Treating inflammatory lung disease” (United States Government as represented by the Department …, priority 2019, dated 2024)
Non-standard residues stand in square brackets, D forms with d. Residues, ends and D or L forms follow the SMILES beside them. *: point of attachment. Phe(4-Cl) = N[C@@H](Cc1ccc(Cl)cc1)C(=O)O; hArg = N=C(N)NCCCC[C@H](N)C(=O)O; 12Ado = NCCCCCCCCCCCC(=O)O; Nle = CCCC[C@H](N)C(=O)O; Orn = NCCC[C@H](N)C(=O)O; Abu = CC[C@H](N)C(=O)O; PhAc = O=C(Cc1ccccc1)*

Tests used:
Assay type in all cases: cell-based, human
Conditions in all cases: 5 μM, 72 h; relative to MIA602 = 1; Table 3A
[1] = system: HCC1806 cells; test: In vitro cell viability, breast cancer HCC1806
Procedure: (§1) The inhibitory effects of the various synthesized GHRH antagonists were tested in cell proliferation assays in various human cancer cell lines including stomach cancer (KATOIII, N87), colon cancer (HT-29), urothelial cancer (J82, RT4), pancreatic cancer (PANC-1, CFPAC-1), prostatic cancer (PC3), breast cancer (MX-1, HCC1806), ovarian cancer (SK-OV-3, OVCAR-3) and lung cancer (HCC827, H460).
(§2) Cell culture. Human cancer cell lines including pancreatic (PANC-1 and CFPAC-1), lung (HCC827 and H460), stomach (NCI-N87 and KATOIII), urothelial (J82, RT4), prostatic (PC3), breast (MX-1 and HCC 1806), colorectal (HT-29), and ovarian (SK-OV-3 and OVCAR-3) were obtained from the American Type Culture Collection (ATCC) and cultured at 37° C. in a humidified 95% air/5% CO2 atmosphere in the medium recommended by ATCC.
(§3) In vitro cell viability. Cell viability was analyzed as follows: cancer cells including pancreatic (PANC-1 and CFPAC-1), lung (HCC827 and H460), stomach (NCI-N87 and KATOIII), urothelial (J82, RT4), prostatic (PC3) and breast (MX-1 and HCC 1806), colorectal (HT-29) and ovarian (SK-OV-3 and OVCAR-3) were grown on 96 well plates to ˜60% confluence, the cells were starved for 24 h in culture medium containing 0.5% FBS. Cells were then treated with GHRH antagonists MIA602 AVR compounds at concentrations of 1, 2.5 or 5 μM, or vehicle (0.1% DMSO) in quintuplicates for 72 hours. The medium was replaced every 48 hours. Cell viability was measured using CellTiter 96 aqueous one solution kit (Promega). Inhibitory effects of tested AVR compounds in comparison to that of MIA602 are presented as inhibitory potency.
(§4) Inhibitory effects of selected AVR compounds in comparison to that of MIA602 are presented as inhibitory potency (e.g., percentage of inhibition). […] The cell lines tested including lung cancer HCC827 (FIG. 2A), pancreatic cancer CFPAC-1 (FIG. 2B), stomach cancer N87 (FIG. 2C), colon cancer HT-29 (FIG. 2D), breast cancers MX-1 and HCC1806 (FIGS. 2E, F). Based on the results of cell proliferation assay after cancer cells were treated with antagonist at concentration of 5 μM for 72H, the relative inhibitory potency of AVR antagonists in comparison to MIA-602 is summarized in Table 3 A and B. Over 60 AVR compounds were tested in 12 cancer cell lines.
(§5) Based on the results of cell proliferation assay after cancer cells were treated with antagonist at concentration of 5 µM for 72H, * at concentration of 2 µM for 72 H.

[2] = system: MX-1 cells; test: In vitro cell viability, breast cancer MX-1
Procedure: as §1, §2, §3, §4, §5

[3] = system: PANC-1 cells; test: In vitro cell viability, pancreatic cancer PANC-1
Procedure: as §1, §2, §3, §4

[4] = system: RT4 cells; test: In vitro cell viability, urothelial cancer RT4
Procedure: as §1, §2, §3
(§6) Inhibitory effects of selected AVR compounds in comparison to that of MIA602 are presented as inhibitory potency (e.g., percentage of inhibition). […] The cell lines tested including lung cancer HCC827 (FIG. 2A), pancreatic cancer CFPAC-1 (FIG. 2B), stomach cancer N87 (FIG. 2C), colon cancer HT-29 (FIG. 2D), breast cancers MX-1 and HCC1806 (FIGS. 2E, F). […]

[5] = system: NCI-N87 cells; test: In vitro cell viability (CellTiter 96), stomach cancer N87
Procedure: as §1, §2, §3, §4, §5

[6] = system: KATOIII cells; test: In vitro cell viability, stomach cancer KATOIII
Procedure: as §1, §2, §3, §4

[7] = system: PC3 cells; test: In vitro cell viability, prostatic cancer PC3
Procedure: as §1, §2, §3, §6

[8] = system: HCC827 cells; test: In vitro cell viability, lung cancer HCC827
Outline: (§7)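 Cells grown to ~60% confluence and serum-starved 24 h in 0.5% FBS, then exposed to antagonists at 5 μM (some at 2 μM) for 72 h in quintuplicate, with medium replaced every 48 h. Viability read by CellTiter 96 AQueous One (MTS). Values are inhibition relative to MIA602.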

[9] = system: CFPAC-1 cells; test: In vitro cell viability, pancreatic cancer CFPAC-1
Outline: as §7

[10] = system: J82 cells; test: In vitro cell viability, urothelial cancer J82
Procedure: as §1, §2, §3, §4

Row | Compound | Relative inhibitory potency, Breast HCC1806 [1] | Relative inhibitory potency, Breast MX-1 [2] | Relative inhibitory potency, Pancreatic Panc-1 [3] | Relative inhibitory potency, Urothelial RT4 [4] | Relative inhibitory potency, Stomach N87 [5] | Relative inhibitory potency, Stomach KATOIII [6] | Relative inhibitory potency, Prostatic PC3 [7] | Relative inhibitory potency, Lung HCC827 [8] | Relative inhibitory potency, Pancreatic CFPAC-1 [9] | Relative inhibitory potency, Urothelial J82 [10]
1 | CCCC[C@H](NC(=O)[C@@H](NC(=O)[C@H](CC(=O)O)NC(=O)[C@H](CCC(N)=O)NC(=O)[C@H](CC(C)C)NC(=O)[C@H](CC(C)C)NC(=O)[C@H](CCCN)NC(=O)[C@H](Cc1c[nH]cn1)NC(=O)[C@H](C)NC(=O)[C@H](CO)NC(=O)[C@H](CC(C)C)NC(=O)[C@H](CCC(N)=O)NC(=O)[C@H](CC)NC(=O)[C@H](CC(C)C)NC(=O)[C@@H](NC(=O)[C@H](CCCCN)NC(=O)[C@H](CCCNC(=N)N)NC(=O)[C@H](Cc1ccc(OC)cc1)NC(=O)[C@H](CCCNC(=N)N)NC(=O)[C@H](C)NC(=O)[C@@H](NC(=O)[C@H](Cc1ccc(Cl)cc1)NC(=O)[C@@H](NC(=O)[C@H](C)NC(=O)[C@H](CC(=O)O)NC(=O)[C@@H](CCCNC(=N)N)NC(=O)[C@H](Cc1ccc(O)cc1)NC(=O)CCCCCCCCCCCNC(=O)Cc1ccccc1)[C@@H](C)CC)[C@@H](C)O)C(C)C)[C@@H](C)CC)C(=O)N[C@H](CCCNC(=N)N)C(=O)N[C@@H](CCCCNC(=N)N)C(N)=O [AVR-104, PhAC-Ada-Tyr-DArg-Asp-Ala-Ile-Cpa-Thr-Ala-Arg-Tyr(Me)-Arg-Lys-Val-Leu-Abu-Gln-Leu-Ser-Ala-His-Orn-Leu-Leu-Gln-Asp-Ile-Nle-DArg-Har-NH2] ({PhAc-12Ado}-Y[dR]DAI[Phe(4-Cl)]TARY(Me)RKVL[Abu]QLSAH[Orn]LLQDI[Nle][dR][hArg]-NH2) | 1.220 | 1.310 | 1.114 | 1.697 | 2.291 | 1.321 | 1.440 | 1.525 | 1.502 | 3.377
2 | CCCC[C@H](NC(=O)[C@@H](NC(=O)[C@H](CC(=O)O)NC(=O)[C@H](CCC(N)=O)NC(=O)[C@H](CC(C)C)NC(=O)[C@H](CC(C)C)NC(=O)[C@H](CCCN)NC(=O)[C@H](Cc1c[nH]cn1)NC(=O)[C@H](C)NC(=O)[C@H](CO)NC(=O)[C@H](CC(C)C)NC(=O)[C@H](CCC(N)=O)NC(=O)[C@H](CC)NC(=O)[C@H](CC(C)C)NC(=O)[C@@H](NC(=O)[C@H](CCCCN)NC(=O)[C@H](CCCNC(=N)N)NC(=O)[C@H](Cc1ccc(OC)cc1)NC(=O)[C@H](CCCNC(=N)N)NC(=O)[C@H](C)NC(=O)[C@@H](NC(=O)[C@H](Cc1ccc(Cl)cc1)NC(=O)[C@@H](NC(=O)[C@H](C)NC(=O)[C@H](CC(=O)O)NC(=O)[C@@H](CCCNC(=N)N)NC(=O)[C@H](Cc1ccc(O)cc1)NC(=O)CCCCCCCCCCCNC(=O)[C@H](N)Cc1ccccc1)[C@@H](C)CC)[C@@H](C)O)C(C)C)[C@@H](C)CC)C(=O)N[C@H](CCCNC(=N)N)C(=O)N[C@@H](CCCCNC(=N)N)C(N)=O [AVR-120, D-Phe-Ada-Tyr-DArg-Asp-Ala-Ile-Cpa-Thr-Ala-Arg-Tyr(Me)-Arg-Lys-Val-Leu-Abu-Gln-Leu-Ser-Ala-His-Orn-Leu-Leu-Gln-Asp-Ile-Nle-DArg-Har-NH2] (H-[dF][12Ado]Y[dR]DAI[Phe(4-Cl)]TARY(Me)RKVL[Abu]QLSAH[Orn]LLQDI[Nle][dR][hArg]-NH2; N-terminus assumed) |  |  | 1.306 | 1.611 | 2.339 | 1.271 |  | 1.423 | 1.617 | 4.841
